The test system of one experiment is p-mTOR. Kind of experiment: p-mTOR protein expression in L6 muscle cells (Western blot). Type of experiment: cell-based. The conditions noted are these: fucosterol 10 μM, treated every 2 days for 6 days, vs 0.01% DMSO control, FIG. 1. The procedure:
As muscle cells, L6 myoblasts (ATCC CRL-1458, Manassas, Va., USA) were added to a 6-well plate at a density of 2×10^5 cells/mL together with a Dulbecco's modified Eagle's medium (DMEM; Hyclone) supplemented with 10% fetal bovine serum (FBS; Hyclone, Logan, Utah, USA). […] The supernatant was quantified using a Bradford method (Bradford, Bio-Rad Laboratories Inc., Hercules, Calif., USA). The quantified proteins were boiled for 5 minutes, and separated through 10% SDS-PAGE, and the separated proteins were transferred to a nitrocellulose membrane. […]
Muscle cells were treated with the ultra-high pressure extract of Sargassum fulvellum prepared in Example 1-6, the supercritical fluid extract of Sargassum fulvellum prepared in Example 1-7, the subcritical fluid extract of Sargassum fulvellum prepared in Example 1-8, the ultra-high pressure extract of Sargassum fusiforme prepared in Example 2-6, the supercritical fluid extract of Sargassum fusiforme prepared in Example 2-7, and the subcritical fluid extract of Sargassum fusiforme prepared in Example 2-8 at a concentration of 20 ppm in the same manner as in Example 4. A p-mTOR protein band was chromogenically developed using an ECL Western blotting detection reagent (Amersham, Tokyo, Japan), and a density of the chromogenically developed protein band was measured using a G;BOX EF imaging system (Syngene, Cambridge, UK). […]
Background: In western blotting, separated proteins are transferred to a membrane and probed.

For the next experiment, the system named is p-p70S6K. Kind of experiment: p-p70S6K protein expression in L6 muscle cells (Western blot). Type of experiment: cell-based. The conditions noted are these: fucosterol 1 and 10 μM, FIG. 2. The method, then:
(§1) As muscle cells, L6 myoblasts (ATCC CRL-1458, Manassas, Va., USA) were added to a 6-well plate at a density of 2×10^5 cells/mL together with a Dulbecco's modified Eagle's medium (DMEM; Hyclone) supplemented with 10% fetal bovine serum (FBS; Hyclone, Logan, Utah, USA). […] In this case, a group in which the cells were treated with 0.01% DMSO instead of the sample was used as the control. This procedure was carried out at an interval of 2 days for 6 days to differentiate the cells, and the cells were then dissolved in an NP-40 buffer (ELPIS-Biotech, Daejeon, Korea) containing a proteinase inhibitor cocktail. The cells lysed in the buffer were transferred to a 1.5 ml tube, and centrifuged at 13,000 rpm for 10 minutes to collect only a supernatant. The supernatant was quantified using a Bradford method (Bradford, Bio-Rad Laboratories Inc., Hercules, Calif., USA). The quantified proteins were boiled for 5 minutes, and separated through 10% SDS-PAGE, and the separated proteins were transferred to a nitrocellulose membrane. A p-mTOR primary antibody (Cell Signaling Technology, Beverly, Mass., USA) was diluted with 2.5% bovine serum albumin (BSA) at a ratio of 1:1,000, and reacted with the proteins transferred to the nitrocellulose membrane at room temperature for 20 hours. […]

Another experiment relates to p-4EBP1. Kind of experiment: p-4EBP1 protein expression in L6 muscle cells (Western blot). It is filed as cell-based. The conditions noted are these: fucosterol 1 and 10 μM, FIG. 2. The procedure:
as §1

In a further experiment the test system is MyoD. In words: MyoD mRNA expression in L6 muscle cells (RT-PCR), muscle differentiation. It is filed as cell-based. The conditions noted are these: fucosterol 1 and 10 μM, 6 days, vs 0.01% DMSO control, FIG. 3. The procedure:
(§2) As muscle cells, L6 myoblasts (ATCC) were added to a 6-well plate at a density of 2×10^5 cells/mL together with DMEM (Hyclone) supplemented with 10% FBS (Hyclone). When the cell density reached approximately 80 to 85%, the medium contained in the wells was removed, and the fucosterol isolated and purified in Example 3 was dissolved at concentrations of 1 and 10 μM in DMEM (Hyclone) supplemented with 2% HS (Hyclone), and the cells were treated with the fucosterol to induce myotube differentiation. In this case, a group in which the cells were treated with 0.01% DMSO instead of the sample was used as the control. This procedure was carried out at an interval of 2 days for 6 days to differentiate the cells, and total RNA was isolated using a TRIzol reagent (Invitrogen, Carlsbad, Calif., USA). The isolated total RNA was quantified using NanoDrop 1000 (Thermo Fisher Scientific Inc., MA, USA). 16 μL of the quantified RNA was synthesized into cDNA using Reverse Transcriptase Premix (ELPIS-Biotech) and a PCR machine (Gene Amp PCR System 2700, Applied Biosystems, MA, USA) under conditions of 42° C. and 55 minutes and 70° C. and 15 minutes. […]

A further experiment has as its system myogenin. In words: myogenin mRNA expression in L6 muscle cells (RT-PCR), muscle differentiation. It is filed as cell-based. The conditions noted are these: fucosterol 1 and 10 μM, 6 days, vs 0.01% DMSO control, FIG. 3. The method, then: as §2
Another experiment deals with atrogin-1. In words: atrogin-1 mRNA expression in TNF-α-treated L6 muscle cells (RT-PCR), muscle protein degradation. It is filed as cell-based. The conditions noted are these: differentiated L6 muscle cells, 50 ng/mL TNF-α, fucosterol 1 and 10 μM, 6 hours, FIG. 6. The method, then: (§3) As muscle cells, L6 myoblasts (ATCC) were added to a 6-well plate at a density of 2×10^5 cells/mL together with DMEM (Hyclone) supplemented with 10% FBS (Hyclone). When the cell density reached approximately 80 to 85%, the medium contained in the wells was removed, and the cells were treated with DMEM (Hyclone) supplemented with 2% HS (Hyclone) to induce myotube differentiation. Cell differentiation was performed for a total of 6 days while replacing the medium with a fresh medium every 2 days. After the differentiation, the fucosterol isolated and purified in Example 3 was dissolved at concentrations of 1 and 10 μM in DMEM (Hyclone) supplemented with 50 ng/mL of tumor necrosis factor alpha (TNF-α; PeproTech, Rocky Hills, N.J., USA), and the cells were then treated with the fucosterol. After 6 hours, total RNA was isolated using a TRIzol reagent (Invitrogen). The isolated total RNA was quantified using NanoDrop 1000 (Thermo Fisher Scientific Inc., MA, USA). 16 μL of the quantified RNA was synthesized into cDNA using Reverse Transcriptase Premix (ELPIS-Biotech) and a PCR machine (Gene Amp PCR System 2700; Applied Biosystems) under conditions of 42° C. and 55 minutes and 70° C. and 15 minutes. […]

Another experiment relates to MuRF-1. Kind of experiment: MuRF-1 mRNA expression in TNF-α-treated L6 muscle cells (RT-PCR), muscle protein degradation. Type of experiment: cell-based. The conditions noted are these: differentiated L6 muscle cells, 50 ng/mL TNF-α, fucosterol 1 and 10 μM, 6 hours, FIG. 6. The method, then:
as §3

For experiment [1], the system named is Wistar rats with TNF-α-induced muscle atrophy. The conditions noted are these: 300 mg/kg, 1344 h. The method, then: Five-week-old Wistar rats (Daehan Biolink, Korea) were adapted for one week, and fed 100 ng/g of TNF-α for 2 weeks to induce muscle atrophy. Thereafter, the rats were randomly divided into a total of 6 groups based on the weights thereof, each group consisting of 8 rats, which were then used in this experiment. […] In this case, a group in which TNF-α was added to the same amount of 0.25% carboxymethyl cellulose which the experimental group ingested was used as the control.
After the sample was administered for 8 weeks, muscles were incised from right lower calves of the rats, and weighed using a microbalance (Mettler PE160, USA).

This note sets out measurements from patent US10646498B2, “Composition for preventing, alleviating or treating muscle diseases or improving muscular function” (AAT COSTECH CO., LTD., priority 2015, dated 2020).

SMILES strings stand for the structures.

Regarding `C/C=C(\CC[C@@H](C)[C@H]1CC[C@H]2[C@@H]3CC=C4C[C@@H](O)CC[C@]4(C)[C@H]3CC[C@]12C)C(C)C` [Fucosterol, (3-beta,24E)-stigmasta-5,24(28)-dien-3-ol], the “expression level of p-mTOR” value in the experiment on p-mTOR was “increased”. Moreover, the “protein expression level of p-p70S6K” value in the experiment with p-p70S6K is recorded as “increased”. In the experiment on p-4EBP1, the “protein expression level of p-4EBP1” value is on record as “increased”. In the experiment with MyoD, the “mRNA expression of MyoD” value is “increased”. Further, the “mRNA expression of myogenin” value in the experiment on myogenin is “increased”. The “mRNA expression of atrogin-1” value with atrogin-1 is listed as “decreased”. The “mRNA expression of MuRF-1” value in the experiment with MuRF-1 is reported as “decreased”. For the same compound, in experiment [1], the “Mean weight of calf muscles” value is 522.1 ± 30.6 mg and the “increase in weights of the muscles compared to the control” value is 25.78%.
